This note sets out measurements from ChEMBL document CHEMBL1201862, “PubChem BioAssay data set” (2004).

In general, IC50 refers to the point on the concentration scale where inhibition reaches its midpoint. By EC50 is commonly meant the midpoint of the concentration-response curve. Broadly, the AC50 is the concentration giving half of the maximal activity seen. By CC50 is commonly meant the concentration giving 50% cytotoxicity.

Active and inactive are the calls of the source.

Test [1] addresses T1, Methionyl-tRNA synthetase, putative (Trypanosoma brucei brucei, UniProt Q38C91). Type of test: functional, Trypanosoma brucei brucei strain 927/4 GUTat10.1.
Test [2] can be described thus: Counterscreen for inhibitors of Trypanosoma brucei methionyl tRNA synthetase (MetRS): Luminescence-based cell-based high throughput dose response assay to identify compounds that are cytotoxic to Jurkat human T lymphocyte cells. Type of test: functional. On the technique in general: Counterscreens check selectivity or assay interference.
Test [3] addresses T1, Methionyl-tRNA synthetase, putative. It counts as functional, Trypanosoma brucei brucei strain 927/4 GUTat10.1. This is another data set of the same source.
The next test deals with CHO. As to the kind of experiment: cytotoxicity in TLR9-MyD88 CHO cells, dose response, cytotoxicity control for TLR9-MyD88 binding inhibitor project, cell-based, luminescence (AID 588339).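 Note: CHO cells stably coexpressing TLR9 and MyD88 fusions from primary screen; compound exposure lasted 48 hours before viability readout.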 Type of test: functional, hamster. The settings on record: Cricetulus griseus.
Another test addresses Beta-galactosidase (Escherichia coli, UniProt Q8VNN2). As to the kind of experiment: PubChem AID 485352. It counts as functional.
Test [4] addresses T2, Beta Lactamase (Pseudomonas aeruginosa, UniProt Q932Y6). As to the kind of experiment: beta-lactamase reporter inhibitor potency, dose response, artefact control for TLR9-MyD88 binding inhibitor project, BLA reporter cells, FRET fluorescence (AID 588341).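 Note: cell based assay in CHO-K1 cells stably expressing beta-lactamase.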 Type of test: cell-based.
A short description of test [5]: cells. Type of test: functional, cell-based.
The target of test [6] is T2, Beta Lactamase. In words: beta-lactamase reporter inhibitor potency, dose response, artefact control for NOD2-RIPK2 interaction inhibitor project, BLA reporter cells, FRET fluorescence (AID 651552). Type of test: functional, cell-based.
A short description of test [7]: cells. It counts as functional, cell-based. The source holds these as a separate data set.
A short description of test [8]: Fluorescence-based cell-based high throughput dose response assay for inhibitors of the interaction of nucleotide-binding oligomerization domain containing 2 (NOD2) and the receptor-interacting serine-threonine kinase 2 (RIPK2). It counts as functional. The note with it: Homo sapiens.
In test [9] the target is T3, Type-1 angiotensin II receptor (Homo sapiens, UniProt P30556).
T3 sequence (P30556 whole entry): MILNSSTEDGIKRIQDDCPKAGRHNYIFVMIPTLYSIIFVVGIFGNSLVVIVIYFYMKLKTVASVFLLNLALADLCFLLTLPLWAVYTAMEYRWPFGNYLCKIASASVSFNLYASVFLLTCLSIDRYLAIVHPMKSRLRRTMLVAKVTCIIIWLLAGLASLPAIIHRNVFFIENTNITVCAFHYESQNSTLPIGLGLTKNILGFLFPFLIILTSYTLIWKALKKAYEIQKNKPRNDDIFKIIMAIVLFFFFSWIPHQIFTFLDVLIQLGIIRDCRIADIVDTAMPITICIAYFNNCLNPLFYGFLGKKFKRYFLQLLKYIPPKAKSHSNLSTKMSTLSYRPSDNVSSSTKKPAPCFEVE
As to the kind of experiment: AT1 receptor antagonists, dose response, selectivity assay for APJ receptor antagonist project, cell-based, uHTS hits (AID 463214).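 Note: antagonist potency against angiotensin II stimulated AT1 response.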 It counts as functional.

The target in test [10] is T4, Microphthalmia-associated transcription factor (Homo sapiens, UniProt O75030).
T4 sequence (O75030 whole entry): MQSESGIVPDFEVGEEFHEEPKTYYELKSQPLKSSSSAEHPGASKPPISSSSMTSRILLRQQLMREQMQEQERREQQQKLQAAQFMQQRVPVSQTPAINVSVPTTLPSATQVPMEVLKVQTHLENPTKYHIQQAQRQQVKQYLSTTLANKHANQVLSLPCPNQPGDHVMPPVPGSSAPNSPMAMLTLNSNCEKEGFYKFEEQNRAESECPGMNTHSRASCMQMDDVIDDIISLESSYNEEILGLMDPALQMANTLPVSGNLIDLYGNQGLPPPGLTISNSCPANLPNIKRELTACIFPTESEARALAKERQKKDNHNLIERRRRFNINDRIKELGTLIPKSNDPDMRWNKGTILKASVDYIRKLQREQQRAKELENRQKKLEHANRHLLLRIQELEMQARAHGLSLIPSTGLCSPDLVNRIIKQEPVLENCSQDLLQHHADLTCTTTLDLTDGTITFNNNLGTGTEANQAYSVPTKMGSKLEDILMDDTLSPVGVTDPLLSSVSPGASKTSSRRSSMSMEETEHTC
In words: TRPM1 promoter luciferase signal decrease, dose response, MITF inhibitor project, cell-based, SK-MEL-5, cherry-picked, set 3 (AID 493073).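 Note: SK-MEL-5 melanoma cells with luciferase driven by the MITF target TRPM1 promoter.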 Type of test: functional.

The nature of test [11]: HeLa cell cytotoxicity, dose response, cytotoxicity control for MgcRacGAP inhibitor project (AID 624300). It counts as functional.
The target in test [12] is T5, Sentrin-specific protease 6 (Homo sapiens, UniProt Q9GZR1).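 Note: Luminescence-based dose-response confirmatory assay of SENP6 inhibition, following up an ultra-high-throughput screen.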
T5 sequence (Q9GZR1 whole entry): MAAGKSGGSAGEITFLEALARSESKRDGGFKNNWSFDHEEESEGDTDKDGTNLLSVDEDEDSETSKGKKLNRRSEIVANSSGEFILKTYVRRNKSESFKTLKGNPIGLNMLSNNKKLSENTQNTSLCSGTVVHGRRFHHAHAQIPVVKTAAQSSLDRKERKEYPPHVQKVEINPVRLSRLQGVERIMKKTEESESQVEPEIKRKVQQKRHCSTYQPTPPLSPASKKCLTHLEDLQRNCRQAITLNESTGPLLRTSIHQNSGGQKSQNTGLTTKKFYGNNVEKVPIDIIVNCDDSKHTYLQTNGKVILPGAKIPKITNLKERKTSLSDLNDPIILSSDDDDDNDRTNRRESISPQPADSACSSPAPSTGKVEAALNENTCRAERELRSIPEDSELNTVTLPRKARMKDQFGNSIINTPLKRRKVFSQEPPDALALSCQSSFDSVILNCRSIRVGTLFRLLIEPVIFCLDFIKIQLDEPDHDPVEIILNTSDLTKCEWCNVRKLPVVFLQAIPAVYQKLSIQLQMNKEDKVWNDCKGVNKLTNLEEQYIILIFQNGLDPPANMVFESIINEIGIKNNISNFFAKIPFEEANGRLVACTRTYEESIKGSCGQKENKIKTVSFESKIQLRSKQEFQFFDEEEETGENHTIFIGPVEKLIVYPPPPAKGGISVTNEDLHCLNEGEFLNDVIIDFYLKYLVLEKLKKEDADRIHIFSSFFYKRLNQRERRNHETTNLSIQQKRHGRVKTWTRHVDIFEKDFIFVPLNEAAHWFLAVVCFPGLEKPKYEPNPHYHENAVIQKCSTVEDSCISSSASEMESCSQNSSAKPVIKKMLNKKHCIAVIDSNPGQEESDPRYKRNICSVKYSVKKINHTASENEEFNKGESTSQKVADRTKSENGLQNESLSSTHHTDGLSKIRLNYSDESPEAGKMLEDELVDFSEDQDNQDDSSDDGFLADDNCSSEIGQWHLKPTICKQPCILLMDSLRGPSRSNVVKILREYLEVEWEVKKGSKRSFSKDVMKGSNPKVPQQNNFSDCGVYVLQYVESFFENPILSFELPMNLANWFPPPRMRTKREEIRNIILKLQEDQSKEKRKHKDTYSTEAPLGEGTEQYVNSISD
Type of test: functional.

Test [13] addresses T6, Rac GTPase-activating protein 1 (Homo sapiens, UniProt Q9H0H5).
T6 sequence (Q9H0H5 whole entry): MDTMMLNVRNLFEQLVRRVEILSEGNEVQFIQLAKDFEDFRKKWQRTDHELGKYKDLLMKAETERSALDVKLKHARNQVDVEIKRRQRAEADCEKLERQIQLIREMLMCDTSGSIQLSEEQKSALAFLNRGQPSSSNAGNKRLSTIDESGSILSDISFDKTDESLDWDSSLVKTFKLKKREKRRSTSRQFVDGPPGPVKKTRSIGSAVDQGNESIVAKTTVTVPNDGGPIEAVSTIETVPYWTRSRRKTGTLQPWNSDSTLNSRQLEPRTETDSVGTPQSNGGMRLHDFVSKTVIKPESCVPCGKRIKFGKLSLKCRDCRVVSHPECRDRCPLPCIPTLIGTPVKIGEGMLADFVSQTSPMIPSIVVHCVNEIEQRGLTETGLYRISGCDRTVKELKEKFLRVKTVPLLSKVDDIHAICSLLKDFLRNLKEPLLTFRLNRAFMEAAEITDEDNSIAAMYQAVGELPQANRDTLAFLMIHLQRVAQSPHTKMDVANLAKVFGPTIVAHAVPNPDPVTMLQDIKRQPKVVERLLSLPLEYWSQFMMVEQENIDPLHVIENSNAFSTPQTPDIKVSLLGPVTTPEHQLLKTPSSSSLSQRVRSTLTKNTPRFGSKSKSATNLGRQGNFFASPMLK
In words: MgcRacGAP GTPase-activating activity inhibitors, confirmation, biochemical, ADP Hunter fluorescence, primary and confirmatory (AID 624330). Type of test: functional.

In test [14] the target is T7, Sentrin-specific protease 8 (Homo sapiens, UniProt Q96LD8).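 Note: luminescence read-out of SENP8 inhibition, dose-response confirmation following an ultra-high-throughput screen.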
T7 sequence (Q96LD8 whole entry): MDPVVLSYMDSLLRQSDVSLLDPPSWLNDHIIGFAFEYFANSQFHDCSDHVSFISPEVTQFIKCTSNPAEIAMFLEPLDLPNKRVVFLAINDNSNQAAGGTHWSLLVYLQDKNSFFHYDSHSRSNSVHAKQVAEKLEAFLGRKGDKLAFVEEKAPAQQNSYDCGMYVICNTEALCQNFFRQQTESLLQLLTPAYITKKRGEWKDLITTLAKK
Type of test: functional.

For test [15], the target named is T8, Sentrin-specific protease 7 (Homo sapiens, UniProt Q9BQF6).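 Note: Luminescence-based dose-response confirmation of ultra-high-throughput screening hits, measuring inhibition of SENP7.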
T8 sequence (Q9BQF6 whole entry): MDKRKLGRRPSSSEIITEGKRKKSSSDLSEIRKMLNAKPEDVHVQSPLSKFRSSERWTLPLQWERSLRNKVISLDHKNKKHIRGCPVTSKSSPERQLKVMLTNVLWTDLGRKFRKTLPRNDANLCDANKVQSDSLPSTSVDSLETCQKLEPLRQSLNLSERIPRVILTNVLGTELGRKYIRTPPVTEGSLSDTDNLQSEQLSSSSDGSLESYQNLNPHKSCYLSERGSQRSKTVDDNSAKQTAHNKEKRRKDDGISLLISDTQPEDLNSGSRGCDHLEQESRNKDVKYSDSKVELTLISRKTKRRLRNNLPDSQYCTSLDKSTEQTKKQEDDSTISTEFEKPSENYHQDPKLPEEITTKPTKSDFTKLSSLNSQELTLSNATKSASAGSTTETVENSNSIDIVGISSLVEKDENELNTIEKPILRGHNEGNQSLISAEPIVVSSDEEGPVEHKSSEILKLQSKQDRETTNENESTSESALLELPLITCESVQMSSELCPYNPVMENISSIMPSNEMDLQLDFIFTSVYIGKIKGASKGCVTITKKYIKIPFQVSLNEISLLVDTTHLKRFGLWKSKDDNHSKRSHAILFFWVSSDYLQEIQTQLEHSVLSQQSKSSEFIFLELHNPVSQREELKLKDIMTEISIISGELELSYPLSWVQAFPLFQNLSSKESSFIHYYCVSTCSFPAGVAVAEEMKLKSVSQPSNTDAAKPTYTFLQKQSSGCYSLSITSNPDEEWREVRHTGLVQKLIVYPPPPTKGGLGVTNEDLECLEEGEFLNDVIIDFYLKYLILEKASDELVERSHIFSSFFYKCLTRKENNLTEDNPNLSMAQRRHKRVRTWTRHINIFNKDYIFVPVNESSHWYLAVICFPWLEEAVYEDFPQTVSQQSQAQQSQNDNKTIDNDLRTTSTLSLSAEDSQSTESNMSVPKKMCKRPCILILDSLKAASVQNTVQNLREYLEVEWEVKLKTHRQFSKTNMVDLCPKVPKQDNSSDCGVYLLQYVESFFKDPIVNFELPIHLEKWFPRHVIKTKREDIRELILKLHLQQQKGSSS
Type of test: functional.

The target of the next test is T9, Caspase-3 (Homo sapiens, UniProt P42574).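 Note: Dose-response selectivity test against caspase-3 for candidate inhibitors of sentrin-specific proteases (SENPs).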
T9 sequence (P42574 whole entry): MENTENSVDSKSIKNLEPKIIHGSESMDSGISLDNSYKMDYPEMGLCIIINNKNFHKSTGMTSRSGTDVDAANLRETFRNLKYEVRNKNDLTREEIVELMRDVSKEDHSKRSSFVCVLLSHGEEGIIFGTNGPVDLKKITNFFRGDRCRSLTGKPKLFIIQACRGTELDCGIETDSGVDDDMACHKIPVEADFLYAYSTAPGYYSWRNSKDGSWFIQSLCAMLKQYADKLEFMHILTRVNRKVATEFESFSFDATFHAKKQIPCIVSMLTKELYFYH
It counts as functional.

T1 sequence (Q38C91 whole entry): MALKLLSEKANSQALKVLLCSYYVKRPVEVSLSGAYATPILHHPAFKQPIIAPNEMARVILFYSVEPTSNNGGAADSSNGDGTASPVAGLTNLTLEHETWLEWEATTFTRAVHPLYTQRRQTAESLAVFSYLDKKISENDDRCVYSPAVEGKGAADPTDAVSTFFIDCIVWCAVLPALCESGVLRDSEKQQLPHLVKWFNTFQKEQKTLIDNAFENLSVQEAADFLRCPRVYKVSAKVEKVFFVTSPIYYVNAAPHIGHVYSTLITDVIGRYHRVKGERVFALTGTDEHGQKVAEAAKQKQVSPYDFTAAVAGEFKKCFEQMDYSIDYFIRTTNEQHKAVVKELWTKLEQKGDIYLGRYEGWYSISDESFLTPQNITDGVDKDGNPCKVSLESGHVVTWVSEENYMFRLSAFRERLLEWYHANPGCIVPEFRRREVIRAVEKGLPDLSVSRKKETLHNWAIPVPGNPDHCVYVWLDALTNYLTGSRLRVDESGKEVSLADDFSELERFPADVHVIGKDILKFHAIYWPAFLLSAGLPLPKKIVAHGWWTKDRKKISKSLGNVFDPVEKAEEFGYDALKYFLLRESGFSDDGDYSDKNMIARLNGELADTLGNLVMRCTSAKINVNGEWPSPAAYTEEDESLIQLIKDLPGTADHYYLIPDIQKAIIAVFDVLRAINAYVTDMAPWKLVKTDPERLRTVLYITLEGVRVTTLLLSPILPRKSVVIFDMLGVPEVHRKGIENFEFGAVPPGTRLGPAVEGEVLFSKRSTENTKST
T2 sequence (Q932Y6 whole entry): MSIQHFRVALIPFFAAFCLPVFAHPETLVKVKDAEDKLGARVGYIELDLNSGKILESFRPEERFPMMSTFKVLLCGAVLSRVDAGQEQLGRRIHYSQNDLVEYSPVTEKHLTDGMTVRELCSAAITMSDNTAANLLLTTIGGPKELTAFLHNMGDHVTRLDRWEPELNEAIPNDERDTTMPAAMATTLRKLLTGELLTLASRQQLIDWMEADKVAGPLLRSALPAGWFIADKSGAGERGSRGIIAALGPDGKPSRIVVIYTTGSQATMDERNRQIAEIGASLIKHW
Beta-galactosidase, sequence (Q8VNN2 whole entry): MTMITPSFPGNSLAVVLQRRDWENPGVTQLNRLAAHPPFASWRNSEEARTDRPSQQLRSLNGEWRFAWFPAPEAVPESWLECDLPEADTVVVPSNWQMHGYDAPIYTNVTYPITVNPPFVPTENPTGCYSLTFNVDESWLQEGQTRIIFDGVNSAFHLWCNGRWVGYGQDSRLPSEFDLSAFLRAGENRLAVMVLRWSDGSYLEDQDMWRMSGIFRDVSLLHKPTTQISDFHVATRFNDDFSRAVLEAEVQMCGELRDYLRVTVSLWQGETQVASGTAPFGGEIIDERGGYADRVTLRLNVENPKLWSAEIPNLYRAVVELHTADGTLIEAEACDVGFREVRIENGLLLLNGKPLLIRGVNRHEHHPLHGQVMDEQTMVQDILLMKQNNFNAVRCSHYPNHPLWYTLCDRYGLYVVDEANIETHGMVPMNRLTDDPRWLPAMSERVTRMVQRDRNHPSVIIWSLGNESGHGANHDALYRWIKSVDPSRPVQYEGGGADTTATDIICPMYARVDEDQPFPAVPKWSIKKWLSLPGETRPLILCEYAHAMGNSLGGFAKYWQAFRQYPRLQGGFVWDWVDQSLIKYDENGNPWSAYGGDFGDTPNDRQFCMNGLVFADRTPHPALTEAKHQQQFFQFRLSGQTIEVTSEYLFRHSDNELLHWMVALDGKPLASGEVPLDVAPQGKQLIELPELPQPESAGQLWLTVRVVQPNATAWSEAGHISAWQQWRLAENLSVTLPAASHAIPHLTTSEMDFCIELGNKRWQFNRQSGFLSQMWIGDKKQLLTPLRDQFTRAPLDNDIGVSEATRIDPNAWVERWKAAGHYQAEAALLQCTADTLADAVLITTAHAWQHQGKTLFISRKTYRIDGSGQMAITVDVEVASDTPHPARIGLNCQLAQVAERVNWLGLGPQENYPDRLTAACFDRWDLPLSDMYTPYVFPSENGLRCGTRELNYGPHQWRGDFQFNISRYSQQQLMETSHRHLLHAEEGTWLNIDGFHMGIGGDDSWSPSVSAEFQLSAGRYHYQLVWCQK

For `Cc1ccc(NC(=O)C=NOCC(=O)Nc2cc(C)cc(C)c2)cc1`, the values for the half-inhibitory concentration (IC50) in test [1], in test [2] and in test [3] were 8.66 µM (active), 83.3 µM (inactive) and 119 µM (inactive), respectively.
In the case of `COc1ccc(C(=O)/C=C/C(=O)N(CC(=O)NC2CCCCC2)CC2CCCO2)c(O)c1` (stereo not drawn), the IC50 was 1.84 µM (active) in the test with CHO; 23.3 µM (inactive) at Beta Lactamase [4]; 19.9 µM (inactive) on Beta Lactamase [6]; 2.17 µM (active) in test [8]; 5.35 µM (active) in test [9]. For the same compound, the EC50 at Beta-galactosidase was > 40 µM (inactive); in “cells [5]”, 34.3 µM (active); in “cells [7]”, > 350 µM (not active). The AC50 in test [10] was 4.01 µM (active).
On to `COc1ccc(NC(=O)n2ncc3cc(Cl)ccc32)cc1OC`, for which the cytotoxic concentration (CC50) in [11] is 100 µM (active). For the same compound, the IC50 in test [12] is 15.1 µM (active); in [13] it was 230 µM (active); in test [14], 20.3 µM (active); in [15] it was 6.04 µM (active); at Caspase-3, 25.5 µM (active).
